Where two headings read alike, the source gives them in different places.
Key:
LIF/LIFR = details: background; cited from earlier work
[1] = rodent pharmacokinetic (PK) studies
other steroid receptors = test: Binding to other steroid receptors; details: Table 1
[2] = PK study, oral bioavailability in rats; format: in vivo, Sprague Dawley rats; details: for bioavailability: Sprague Dawley, rat, plasma, po
Description: For example, the oral bioavailability can be determined by the formula (1):
F=100*(AUCpo*Div/AUCiv*Dpo) (1)
where: F is bioavailability; AUCpo is dose-corrected area under curve of non-intravenous oral drug; Div is the intravenous dose; AUCiv is the area under the curve intravenous; and Dpo is the oral dose.

xenograft and PDX models = details: background; cited from earlier work
MCF7/LIF cells = test: Effect on MCF7 cells with artificial LIF expression (FIG. 1); format: cell-based; details: artificial expression of LIF in MCF7 cells
Description: (§1) The artificial expression of LIF in MCF7 cells (MCF7/LIF) made those cells vulnerable to LIF inhibitors (FIG. 1) such as compound 5 (EC905) and compound 13 (EC915)
(§2) In order to identify the mechanism of action of EC914, we checked cytotoxicity of these compounds in various cells lines and derived IC50 values. Briefly, 5×10^3 cells were seeded in 96-well plates and incubated with compounds (0.0001-10 μmol/L) or dimethyl sulfoxide (DMSO; 0.02% v/v) for 24, 48, and 72 hours at 37° C. and cell viability was measured using a Fluoroscan plate reader (Nair et al. Estrogen receptor-β activation in combination with letrozole blocks the growth of breast cancer tumors resistant to letrozole therapy. Steroids. 2011 July; 76(8):792-6).

[3] = test system: NE-1.8 (neuro endocrine-like) prostate cancer cell line; test: Calcein AM fluorescent dye-based cell viability assay, NE-1.8 cells; details: 96 hours, 50 nM to 250 nm EC914
Description: In one test, NE-1.8 (neuro endocrine-like) prostate cancer cell line was treated with compound 12 (EC914).
After 96 hours, the cell viability was observed using Calcein AM fluorescent dye-based cell viability assay. More than 50-80% of cell growth inhibition was observed from 50 nM to 250 nm concentration of EC914 compared to vehicle control. Similar growth inhibition trend was observed upon treatment with LIF inhibitor on the C42B prostate cancer cell line at 48 hrs.

[4] = test system: murine and human PCa cells; test: Viability and Incucyte Cytotox assay of PCa cells (FIG. 6); format: cell-based
Description: FIG. 6A depicts a line graph showing significant decline in the viability of murine and human PCa cells upon treatment with EC914 and/or Docetaxel.

[5] = test system: triple negative breast cancer cells; test: Antiproliferative activity in TNBC cells; format: cell-based
Description: as §1, §2

MDA-MB-231 xenograft = test: MDA-MB-231 tumor xenograft study; format: in vivo, athymic nude mice; details: TNBC mouse xenograft model, initial 3 doses of 10 mg/kg, oral, FIG. 5
Description: Uniform suspensions of human breast cancer MDA-MB-231 cells (2×10^6) in 100 μL (0.02 carboxymethyl cellulose in phosphate buffered saline) were injected subcutaneously into the right and left flanks of 4- to 5-week-old female athymic nude mice (Charles River Laboratories). After 10 days, when the tumor […] reaches 100 mm^3, the mice were randomly allocated to 3 groups of each containing 6 animals. Group 1 served as the untreated control, groups 2 received EC914 orally at 10 mg/kg daily for 3 doses. All drug was formulated in a vehicle containing 58.5% Labrasol ALF, 22.5% Labrafil M, 1944 CS, 9% Capryol 90 and 10% water q.s. Tumors were allowed to reach palpability before drug intervention. Tumor size was measured every 3 days using digital Vernier Calipers and tumor volume was calculated using the ellipsoid formula [D×(d2)]/2, where D is the large diameter of the tumor and d represents the small diameter. On day 19, the mice were euthanized, and tumors were harvested for protein and gene expression studies since the control tumors reached maximum allowable size as the IACUC regulations (See FIG. 5).

pSTAT3 = test: Western blot of STAT3 phosphorylation (FIG. 2); format: cell-based
Description: It is believed that EC914 binds directly to LIFR and blocks LIF signaling. Binding of EC914 to LIFR was measured by microscale thermophoresis (MST). The binding kD was 174 nM (FIG. 3).
In brief, MDA-MB-231/BT549 cells were treated with compounds for 3 days at different concentrations (10, 100 nM) and cell lysates were separated by 8% SDS-PAGE and transferred to polyvinylidene difluoride membranes. Membranes were then incubated with primary antibodies including phosphorylated and/or total pSTAT3. After overnight incubation at 4° C., membranes were incubated with secondary antibodies. Immunoreactive bands were then visualized by the enhanced chemiluminescence (ECL) detection system (GE healthcare.

[6] = test system: 22Rv1 and cE2 mouse syngeneic cells; test: Prostate cancer tumor models in vivo (FIG. 9); details: 22Rv1 and cE2 subcutaneous tumors in athymic nude mice
Description: 22Rv1 and cE2 mouse syngeneic cells were subcutaneously implanted in athymic nude mice (0.75×10^6/mice). Two weeks after post-implantation, mice were randomized into four groups. Group 1 mice received saline, whereas group 2 and group 3 mice received EC 914 (every alternative day) or DTX (once in 3 days) alone. Finally, group 4 mice were administered with both EC 914 and DTX. […] Based on this rationale, it is believed that LIFR is overexpressed in response to DTX treatment and induces resistance, and enriches the CSC population in metastatic CRPC.

LIFR = biological target: T1, LIFR (Homo sapiens, UniProt P42702); test: Microscale thermophoresis (MST) binding to LIFR
T1 sequence (P42702 45-1097): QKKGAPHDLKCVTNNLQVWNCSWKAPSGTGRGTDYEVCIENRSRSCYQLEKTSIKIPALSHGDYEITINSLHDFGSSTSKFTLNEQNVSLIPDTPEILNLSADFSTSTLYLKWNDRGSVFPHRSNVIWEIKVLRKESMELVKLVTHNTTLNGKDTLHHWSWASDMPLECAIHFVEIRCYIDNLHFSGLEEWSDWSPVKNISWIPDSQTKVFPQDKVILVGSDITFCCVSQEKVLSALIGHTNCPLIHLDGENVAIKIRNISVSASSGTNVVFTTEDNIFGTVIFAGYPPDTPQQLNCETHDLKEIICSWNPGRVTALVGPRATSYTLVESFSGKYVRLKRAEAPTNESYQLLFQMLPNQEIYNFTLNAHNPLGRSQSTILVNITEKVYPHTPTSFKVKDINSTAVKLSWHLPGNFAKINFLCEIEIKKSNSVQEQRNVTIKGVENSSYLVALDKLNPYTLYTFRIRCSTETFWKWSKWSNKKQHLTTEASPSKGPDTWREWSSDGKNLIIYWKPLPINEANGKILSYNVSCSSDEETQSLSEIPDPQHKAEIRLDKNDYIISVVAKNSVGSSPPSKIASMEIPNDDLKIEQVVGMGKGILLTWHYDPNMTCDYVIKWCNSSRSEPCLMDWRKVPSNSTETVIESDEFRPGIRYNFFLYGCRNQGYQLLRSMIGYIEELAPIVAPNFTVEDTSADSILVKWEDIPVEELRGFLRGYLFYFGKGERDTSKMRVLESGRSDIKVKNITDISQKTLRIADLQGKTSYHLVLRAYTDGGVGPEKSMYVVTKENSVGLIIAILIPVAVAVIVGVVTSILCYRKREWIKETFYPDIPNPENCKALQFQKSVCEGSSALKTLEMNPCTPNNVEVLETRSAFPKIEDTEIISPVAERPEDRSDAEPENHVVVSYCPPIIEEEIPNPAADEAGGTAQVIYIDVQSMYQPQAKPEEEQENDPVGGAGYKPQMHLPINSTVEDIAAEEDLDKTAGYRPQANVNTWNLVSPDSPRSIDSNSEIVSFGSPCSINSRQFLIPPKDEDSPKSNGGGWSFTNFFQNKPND
Description: Binding of EC914 to LIFR was measured by microscale thermophoresis (MST).

[7] = test system: MDR1, CD44, Sox2, ALDH1, and CD133; test: Western blot of CSC marker expression in PCa (FIG. 7C); format: cell-based
Description: (§3) In this study, the cellular signaling disrupted upon EC 914 treatment was analyzed. […] Thus, cancer stemness enrichment upon DTX treatment might be abolished by LIF/LIFR signaling disruption through EC914 inhibitor.

[8] = test system: STAT1, STAT3, AKT, ERK, Myc, and tCyclinD1 proteins; test: Western blot of cellular signaling in PCa cells (FIG. 7A); format: cell-based; details: no change in total proteins
Description: as §3

HESE cells = test: Caspase-3/7 apoptosis assay (Caspase-Glo); format: cell-based; details: Caspase-3/7 activity
Description: Caspase-3/7 activity in HESE cells was measured using Caspase-Glo assay kit (Promega), as described before (Bhaskaran et al, 2013). Briefly, cells were homogenized in homogenization buffer (25 mmol/L HEPES, pH 7.5, 5 mmol/L MgCl2, and 1 mmol/L EGTA), protease inhibitors, and the homogenate was centrifuged at 13,000 rpm at 4° C. for 15 minutes. To 10 μL of the supernatant containing protein was added to an equal volume of the assay reagent and incubated at room temperature for 2 hours. The luminescence was measured using a luminometer.

Compound: C#CC(F)(F)[C@]1(O)CC[C@H]2[C@@H]3CCC4=CC(=O)CCC4=C3[C@@H](c3ccc(C4CC4)cc3)C[C@@]21C [EC330]
- LIF/LIFR mediated proliferation and tumor growth (LIF/LIFR): efficiently inhibited

Compound: C#CC(F)(F)[C@]1(O)CC[C@H]2[C@@H]3CCC4=CC(=O)CCC4=C3[C@@H](c3ccc(-c4c(C)cc(C)cc4C)cc3)C[C@@]21C [EC359, reference compound]
- oral bioavailability [1]: 16%
- Binding to other steroid receptors (other steroid receptors): Low binding to PR
- oral bioavailability ([2]; Table 1): 16%
- efficacy in preclinical xenograft and PDX models (xenograft and PDX models): good efficacy

Compound: C#CC(F)(F)[C@]1(O)CCC2C3CCC4=CC(=O)CCC4=C3[C@@H](c3cccc(-c4cccnc4)c3)C[C@@]21C (stereo partly shown) [EC905]
- vulnerability of MCF7/LIF cells to LIF inhibitors (MCF7/LIF cells): vulnerable

Compound: C#CC(F)(F)[C@]1(O)CCC2C3CCC4=CC(=O)CCC4=C3[C@@H](c3cccc(C#N)c3C)C[C@@]21C (stereo partly shown) [EC914]
- cell growth inhibition compared to vehicle control [3]: 50-80%
- Binding to other steroid receptors (other steroid receptors): No
- cytotoxicity of Docetaxel in PCa ([4]; 22Rv1 cells, Incucyte Cytotox assay, FIG. 6B): increases cytotoxicity of Docetaxel
- viability of PCa cells ([4]; murine and human PCa cells, FIG. 6A): decreases viability
- bioavailability ([2]; PK studies in Sprague Dawley rats, FIG. 4): 87.9%
- bioavailability ([2]; Table 1): 87.9%
- antiproliferative activity [5]: potent antiproliferative activity
- tumor burden (MDA-MB-231 xenograft): reduced tumors burden
- STAT3 phosphorylation (pSTAT3): reduced STAT3 phosphorylation
- tumor growth [6]: inhibit tumor growth
- Kd (LIFR; MST, FIG. 3, read-out: binding kD to LIFR): 174 nM
- Kd (LIFR; Table 1, read-out: LIFR binding): 175 nM
- key CSC marker expression (MDR1, CD44, Sox2, ALDH1, CD133) [7]: specifically decreases
- phosphorylation of STAT1 and STAT3 and of AKT, ERK, Myc, tCyclinD1 [8]: decreased
- percent of apoptosis induced (HESE cells): comparable to that of EC359

Compound: C#CC(F)(F)[C@]1(O)CCC2C3CCC4=CC(=O)CCC4=C3[C@@H](c3ccc(C#N)cc3C)C[C@@]21C (stereo partly shown) [EC915]
- vulnerability of MCF7/LIF cells to LIF inhibitors (MCF7/LIF cells): vulnerable
